Test results reported in patent EP0846119B1, “THIENOPYRIMIDINE DERIVATIVES, THEIR PRODUCTION AND USE AS ENDOTHELIN ANTAGONISTS” (Takeda Chemical Industries, Ltd., priority 1995, dated 1997).
Like-named read-outs stand apart in the source and are kept apart here.

What was measured:
[1] = tested on: coronary vein where ETB is expressed; experiment: Inhibition Test on coronary vein where ETB is expressed (S6c-induced constriction of ring samples); details: Sus scrofa, porcine coronary vein ring, pre-treatment 30 minutes, relative to vehicle group, read-out: % inhibition (MEAN ± S.E.M.) (n=) vein (S6c 1 nM); for inhibition at 0.1 µM: compound 0.1 µM; for inhibition at 10 µM: compound 10 µM
Description: Inhibition Test on coronary vein where ETB is expressed:
3-mm ring samples for vehicle group and drug-treating group were prepared by removing fat and connective tissue from coronary vein enucleated from porcine heart and obtained from the adjacent portions thereof. The samples, hanging in Magnus tube filled with Krebs solution, were stabilized for 90 minutes under 0.5 g static tension. After subjecting the samples to constriction for 10 minutes by potassium chloride (KCl) (60 mM) to obtain the maximum reaction, the samples were washed and stabilized for 60 minutes. After pre-treating compound obtained in Example 5 or Compound 16 of Example 11 or vehicle (H2O) for 30 minutes, S6c (1 nM) (S6c: sarafotoxin S6c, peptide type snake toxin consisting of 21 amino acids, it is useful for the selective agonist to ETB receptor owing to the similarity of its structure to endothelin) was added to observe the maximum constriction.
The constriction efficiency (% KCl) of S6c was calculated as a relative value to KCl constriction of each sample which was regarded as 100%. Further, the inhibiting efficiency was calculated from the constriction efficiency of the drug-treating group calculated as a relative value to the constriction of the vehicle group which was regarded as 100%.

[2] = biological target: T1, human endothelin-B (ETB) receptors (Homo sapiens, UniProt P24530); experiment: Binding Test to ETB receptor expressed in an insect cell Sf9 ([125I]endothelin-1 displacement)
T1 construct: made in house; host or cells: Sf9 insect cells (membrane fractions)
T1 sequence (P24530 27-442): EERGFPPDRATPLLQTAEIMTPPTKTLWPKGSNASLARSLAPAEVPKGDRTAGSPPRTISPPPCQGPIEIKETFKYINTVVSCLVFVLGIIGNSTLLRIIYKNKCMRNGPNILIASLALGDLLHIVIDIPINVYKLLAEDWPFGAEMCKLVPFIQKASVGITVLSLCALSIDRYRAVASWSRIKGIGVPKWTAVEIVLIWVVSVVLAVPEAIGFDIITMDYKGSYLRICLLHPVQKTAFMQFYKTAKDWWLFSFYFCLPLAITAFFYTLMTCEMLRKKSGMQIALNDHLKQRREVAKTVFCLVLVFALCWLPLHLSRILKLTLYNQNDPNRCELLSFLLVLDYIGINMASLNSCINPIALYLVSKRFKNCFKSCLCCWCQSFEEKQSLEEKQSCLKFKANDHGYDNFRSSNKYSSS
Description: Binding Test to ETB receptor expressed in an insect cell Sf9:
Endothelin (ET) receptors were prepared by diluting fractions of insect cell (Sf9) membrane having human endothelin-B (ETB) receptors expressed, with an assay buffer {200 mM Tris-HCl, 2 mM EGTA (ethylenegiycol bis(2-aminoethylether) tetra acetic acid), 5 mM magnesium acetate, 0.1% BSA (bovine serum albumin), 0.03% NaN3, 0.5 mM PMSF(phenyl methyl sulfonyl fluoride), 20 µg/ml leupeptin, 4 µg/ml E-64 (products of the Peptide Institute), 1 µg/ml pepstatin, (pH 7.2)} respectively in a concentration of 1.4 µg/ml in the former case and 0.7 µg/ml in the latter case.
To 100 µl of each portion was added 5 nM[^125I] endothelin-1 (2 µl). A dimethylsulfoxide solution (3 µl) of the sample was added thereto and incubated at 25°C fpr 60 minutes.
And, to determine the maximum binding amount (B0) and non-specific binding amount (NSB), lots to which a dimethyl sulfoxide solution (3 µl) or a dimethyl sulfoxide solution (3 µl) containing endothelin-1 (10^-5M) had been added, were also incubated.
These lots were supplemented with 0.05% CHAPS(3-[(3-chloroamidopropyl)dimethylammonio]-1-propanesulfonate)-assay buffer (1.5 ml), subjected to filtration through a glass fiber filter GF/F (trade name; product of Whatman Ltd. (England)), and then washed with the same buffer (1.5 ml).
Radioactivity on the filter was counted in a gamma-counter to determine the Percent Maximum Binding (PMB) in accordance with the aforesaid calculation formula. The concentration causing PMB=50% was determined as IC50 value.

[3] = Sf9 membrane fractions, [125I]endothelin-1, 25°C, 60 minutes, concentration causing PMB=50%, read-out: IC50 value: µM Human endotherin-B receptor
[4] = Table 6, values recur in Table 8, read-out: Binding IC50 (µM) ETB

| SMILES | inhibition at 0.1 µM [1] | inhibition at 10 µM [1] | IC50 [2, 3] | IC50 [2, 4] |
| --- | --- | --- | --- | --- |
| CCS(=O)(=O)NCc1c(-c2ccc(OCOC)cc2)sc2c1c(=O)n(CC(=O)O)c(=O)n2Cc1ccccc1SC [11(16), 2,4(1H,3H)-Dioxo-6-(4-methoxymethoxyphenyl)-1-(2-methylthiobenzyl)-5-(ethanesulfonamidomethyl)thieno[2,3-d]pyrimidine-3-acetic acid] | 53.3 ± 4.4% | 98 ± 1.1% | 0.054 µM | 0.054 µM |
| COCOc1ccc(-c2sc3c(c2CNS(C)(=O)=O)c(=O)n(CC(=O)O)c(=O)n3Cc2ccccc2SC)cc1 [Example 5, 2,4(1H,3H)-dioxo-6-(4-methoxymethoxyphenyl)-1-(2-methylthiobenzyl)-5-(methanesulfonamidomethyl)thieno[2,3-d]pyrimidine-3-aretic acid] | 73.4 ± 3.1% | 100% | 0.2 µM | 0.1 µM |
